Test results as given in patent publication US7250413B2, “C-25 carbamate rifamycin derivatives with activity against drug-resistant microbes” (Cumbre Pharmaceuticals Inc., priority 2004, dated 2007).
Values after ≈ are worked out from the molar mass of the structure shown.

Columns and labels:
Assay in all cases: MIC, microbroth dilution
Type in all cases: cell-based
[1] = tested on: Enterococcus faecalis ATCC29212; conditions: rifS, BHI Broth, 37° C., read-out: MIC
Method: (§1) Representative compounds were assayed for antimicrobial activity as follows: Minimum Inhibitory Concentrations (“MICs”) were determined by the microbroth dilution method as per NCCLS guidelines (National Committee for Clinical Laboratory Standards, 2000), except that all growth incubations were conducted at 37° C. Bacterial cultures were tested in the following bacteriological media: S. aureus, S. epidermidis, and E. coli in Cation-Adjusted Mueller-Hinton Broth, S. pneumoniae in THY Broth supplemented with 1 mg/mL catalase under 5% CO2 atmosphere, S. pyogenes in THY Broth, E. faecalis in BHI Broth, H. influenzae in BHI Broth supplemented with 0.75 μL of 1 mg/mL NAD and 150 μL of 1 mg/ml hematin per 5 mL, and M smegmatis in Middlebrook Broth plus ADC Enrichment.

[2] = tested on: Mycobacterium smegmatis ATCC700084; conditions: Mycolicibacterium smegmatis, ATCC700084; rifS; Middlebrook Broth plus ADC Enrichment, 37° C.; read-out: MIC
Method: as §1

[3] = tested on: Staphylococcus aureus ATCC29213; conditions: rifS, Cation-Adjusted Mueller-Hinton Broth, 37° C., read-out: MIC
Method: as §1

SMILES	MIC [1] [µg/mL]	MIC [2] [µg/mL]	MIC [3] [µg/mL]
CNC(=O)O[C@H]1[C@H](C)[C@H](O)[C@H](C)[C@@H](O)[C@@H](C)/C=C/C=C(/C)C(=O)NC2=C(N3CCOCC3)C(=O)c3c(c(O)c(C)c4c3C(=O)[C@@](C)(O/C=C/[C@H](OC)[C@H]1C)O4)C2=O [Example 21, 25-O-Desacetyl-(carbonyl-methylamino) 3-morpholino rifamycin S]	0.25 to 62 (≈ 0.314 to 77.9 µM)	0.063 to 31	0.002 to 1.95 (≈ 0.00251 to 2.45 µM)
CO[C@H]1/C=C/O[C@@]2(C)Oc3c(C)c(O)c4c(c3C2=O)C(=O)C(N2CCOCC2)=C(NC(=O)/C(C)=C\C=C\[C@H](C)[C@H](O)[C@@H](C)[C@@H](O)[C@@H](C)[C@H](OC(=O)NCc2ccc(Cl)cc2)[C@@H]1C)C4=O [Example 22, 25-O-Desacetyl-(carbonyl-4-chlorobenzyl) 3-morpholino rifamycin S]	0.25 to 62 (≈ 0.276 to 68.4 µM)	0.063 to 31	0.002 to 1.95 (≈ 0.00221 to 2.15 µM)
CO[C@H]1/C=C/O[C@@]2(C)Oc3c(C)c(O)c4c(c3C2=O)C(=O)C(N2CCOCC2)=C(NC(=O)/C(C)=C\C=C\[C@H](C)[C@H](O)[C@@H](C)[C@@H](O)[C@@H](C)[C@H](OC(=O)NCCCc2ccccc2)[C@@H]1C)C4=O [Example 24, 25-O-Desacetyl-(carbonyl-3-phenylpropylamino) 3-morpholino rifamycin S]	0.25 to 62 (≈ 0.278 to 68.9 µM)	0.063 to 31	0.002 to 1.95 (≈ 0.00222 to 2.17 µM)
CO[C@H]1/C=C/O[C@@]2(C)Oc3c(C)c(O)c4c(c3C2=O)C(=O)C(N2CCOCC2)=C(NC(=O)/C(C)=C\C=C\[C@H](C)[C@H](O)[C@@H](C)[C@@H](O)[C@@H](C)[C@H](OC(=O)NCCc2ccccc2)[C@@H]1C)C4=O [Example 25, 25-O-Desacetyl-(carbonyl-3-phenylethylamino) 3-morpholino rifamycin S]	0.25 to 62 (≈ 0.282 to 70 µM)	0.063 to 31	0.002 to 1.95 (≈ 0.00226 to 2.2 µM)
COc1ccc(CNC(=O)O[C@H]2[C@H](C)[C@H](O)[C@H](C)[C@@H](O)[C@@H](C)/C=C/C=C(/C)C(=O)NC3=C(N4CCOCC4)C(=O)c4c(c(O)c(C)c5c4C(=O)[C@@](C)(O/C=C/[C@H](OC)[C@H]2C)O5)C3=O)cc1 [Example 26, 25-O-Desacetyl-(carbonyl-4-methoxybenzylamino) 3-morpholino rifamycin S]	0.25 to 62 (≈ 0.277 to 68.7 µM)	0.063 to 31	0.002 to 1.95 (≈ 0.00222 to 2.16 µM)
COc1c(N2CCN(C(=O)O[C@H]3[C@H](C)[C@H](O)[C@H](C)[C@@H](O)[C@@H](C)/C=C/C=C(/C)C(=O)NC4=C(N5CCOCC5)C(=O)c5c(c(O)c(C)c6c5C(=O)[C@@](C)(O/C=C/[C@H](OC)[C@H]3C)O6)C4=O)C(C)C2)c(F)cc2c(=O)c(C(=O)O)cn(C3CC3)c12 (stereo partly drawn) [Example 28, 25-O-Desacetyl-(carbonyl-1-cyclopropyl-6-fluoro-8-methoxy-7-(3-methyl-piperazin-1-yl)-4-oxo-1,4-dihydro-quinoline-3-carboxylic acid) 3-morpholino rifamycin S]	0.25 to 62 (≈ 0.219 to 54.4 µM)	0.063 to 31	0.002 to 1.95 (≈ 0.00175 to 1.71 µM)
CCN1CC2CN(C(=O)O[C@H]3[C@H](C)[C@H](O)[C@H](C)[C@@H](O)[C@@H](C)/C=C/C=C(/C)C(=O)NC4=C(N5CCOCC5)C(=O)c5c(c(O)c(C)c6c5C(=O)[C@@](C)(O/C=C/[C@H](OC)[C@H]3C)O6)C4=O)CC2C1 (stereo partly drawn) [Example 29, 25-O-Desacetyl-(carbonyl-2-ethyl-octahydro-pyrrolo[3,4-c]pyrrole) 3-morpholino rifamycin S]	0.25 to 62 (≈ 0.276 to 68.5 µM)	0.063 to 31	0.002 to 1.95 (≈ 0.00221 to 2.15 µM)
CO[C@H]1/C=C/O[C@@]2(C)Oc3c(C)c(O)c4c(c3C2=O)C(=O)C(N2CCOCC2)=C(NC(=O)/C(C)=C\C=C\[C@H](C)[C@H](O)[C@@H](C)[C@@H](O)[C@@H](C)[C@H](OC(=O)NCCN(C)C)[C@@H]1C)C4=O [Example 30, 25-O-Desacetyl-(carbonyl-N,N-dimethylethylenediamine) 3-morpholino rifamycin S]	0.25 to 62 (≈ 0.293 to 72.7 µM)	0.063 to 31	0.002 to 1.95 (≈ 0.00234 to 2.29 µM)
